We go through 87 compounds from ChEMBL document CHEMBL3301555, “MMV Malaria Box screening in pLDH viability assay against Plasmodium falciparum gametocytes”.

This test concerns Plasmodium falciparum. The test is described as follows: MMV: Measure of pLDH activity as indication of parasite viability. Gametocytogenesis of 3D7 Plasmodium falciparum strain was induced in vitro and asexual parasites were depleted with N-acetylglucosamine. Gametocytes were treated with dihydroartemisinin, epoxomicin, methylene blue, primaquine, puromycin or chloroquine in 96-well plates and the pLDH activity was evaluated using a modified Makler protocol. Mosquito infectivity was measured by the standard membrane feeding assay. Format: functional. More on the design: concentration or dose not given beside the values.
Consider `CCN1CCCC1CNc1[nH]cnc2c3cc(Cl)ccc3nc1-2` (configuration not stated), for which the “Growth Inhibition” value came out at 8.5536%. Next, `COc1ccc(-c2c(C)nn3c(N)c(C#N)cnc23)cc1OC`: 32.2252%; `CSC1=NC(=Nc2c(C)cccc2C)C2(CCC(C(C)(C)C)CC2)N1c1ccc(Cl)cc1` (configuration not stated): -2.9236%. As for `C[n+]1c2ccccc2nc2ccc(NCCO)cc21`, the figure is 16.8202%; as for `Cc1cc(C)cc(Nc2cc(C)nc3nc(C(F)(F)F)nn23)c1`, -10.2568%. As for `O=C(NCC(c1ccsc1)N1CCCCCC1)c1ccc(C(F)(F)F)cc1` (configuration not stated), the figure is -3.1098%. With `COc1ccc(-c2cc3c(SCC(=O)Nc4cc(C(F)(F)F)ccc4Cl)nccn3n2)cc1`, the “Growth Inhibition” value turned out to be 0.117%. Next, `Cc1ccc(-c2cc3c(SCC(=O)Nc4cc(C(F)(F)F)ccc4Cl)nccn3n2)cc1`: -10.2658%; `CCN(CC)CCNc1ncnc2c1[nH]c1ccc(Cl)cc12`: 10.0038%; `CCOC(=O)c1cnc2ccc(CC)cc2c1O`: 41.8585%. Turning to `Cc1ccc(-c2cc3c(nn2)-c2ccccc2C3=O)cc1`, the “Growth Inhibition” value worked out at 32.1362%.

Consider `CCN(CC)CCNc1ccnc2cc(Cl)ccc12`, for which the “Growth Inhibition” value is 9.9324%. As for `CCCCCC(=O)N1c2ccccc2N=C2CC(c3ccc(OC)c(OC)c3)CC(O)=C2C1c1ccc(C(F)(F)F)cc1` (configuration not stated), the figure is 33.4948%; as for `Cc1cc(Nc2ccc3ccccc3c2)n2ncnc2n1`, -5.4308%. On to `Cc1cc(NCCN2CCCCC2)c2ccc3ccccc3c2n1`, for which the “Growth Inhibition” value is listed as 17.8584%. For the compound `COc1ccc(-n2ccnc2SCC(=O)Nc2cc(C)ccc2C)c(OC)c1`, the “Growth Inhibition” value amounted to 2.884%.

Regarding `CCN1CCN(Cc2ccc(NC(=O)c3cc4ccc5cccnc5c4[nH]3)cc2)CC1`, the “Growth Inhibition” value is recorded as 4.9364%. As to `COc1ccc(-c2nc(NC(=O)CS(=O)(=O)c3ccc(F)cc3)sc2C)cc1`, the “Growth Inhibition” value came to 30.52%.

With `O=C(O)C1Cc2c([nH]c3ccccc23)C(c2ccc(Cl)cc2Cl)N1` (configuration not stated), the “Growth Inhibition” value is recorded as 8.0448%. As to `CCC(C)NCC(O)(c1ccc(Cl)cc1)c1ccc(Cl)cc1` (configuration not stated), the “Growth Inhibition” value turned out to be 29.3926%.

On to `Cc1ccc(N2C(=O)C3C(C2=O)C2(c4ccccc4)C(=O)C3(c3ccccc3)C(c3ccccc3)=C2c2ccccc2)cc1` (configuration not stated), for which the “Growth Inhibition” value was 4.6846%. As for `CCc1c(C)c(=N)c2ccccc2n1C.I`, the “Growth Inhibition” value was -4.4994%.

Regarding `CCOC(=O)c1cn(CC)c2cc(N(C)CCc3ccc(OC)c(OC)c3)c(F)cc2c1=O`, the “Growth Inhibition” value came out at 25.5006%.

For `CCC(c1ccccc1)c1nn2c(-c3cccs3)nnc2s1` (configuration not stated), the “Growth Inhibition” value turned out to be 4.041%. As for `CC(C)(C)c1ccc(O)c(CNC2CCCCC2)c1`, the figure is 30.335%. For `O=[N+]([O-])c1ccc(C=NNc2nc3ccccc3[nH]2)cc1`, the “Growth Inhibition” value is -2.3354%. For `CCOc1cc2c(cc1OCC)C(c1cc(OC)c(O)cc1Cl)NCC2` (configuration not stated), the “Growth Inhibition” value was 24.0654%. Consider `CC1CN(C(=O)c2sc3ccccc3c2Cl)CC(C)O1` (configuration not stated), for which the “Growth Inhibition” value is 1.741%.

Take `COCCNC(=O)c1ccc(OC2CCN(Cc3ccc(F)c(F)c3)CC2)c(Cl)c1`: the “Growth Inhibition” value is 5.6964%.

For the compound `CN(C)c1ccc(C=Cc2nc(=O)c3ccccc3o2)cc1`, the “Growth Inhibition” value came out at 1.8448%. In the case of `COc1ccc(C2=C(c3ccc(OC)cc3)C3(c4ccccc4)C(=O)C2(c2ccccc2)C2C(=O)N(c4ccc(C)cc4)C(=O)C23)cc1` (configuration not stated), the “Growth Inhibition” value is -4.8036%.

Consider `CCOC(=O)c1c(NC(=O)c2ccccc2)sc2c(O)c(CN(CC)CC)ccc12`, for which the “Growth Inhibition” value is given as 35.4934%.

Consider `CCOC(=O)C1=C(c2ccccc2)N=c2sc(=Cc3cc(C)n(-c4ccc(F)cc4)c3C)c(=O)n2C1c1cccc(OC)c1OC` (configuration not stated), for which the “Growth Inhibition” value is on record as -7.255%. Next, `CCC1(C)CC(CCNCc2ccccc2O)(c2ccc(C)cc2)CCO1` (configuration not stated): 26.52%; `OC(CNC1CCCCC1)Cn1c2ccccc2c2ccccc21` (configuration not stated): 33.5526%.

Regarding `Cc1cc(Nc2ccc(C)c(Cl)c2)n2nc(C(F)(F)F)nc2n1`, the “Growth Inhibition” value is reported as 1.818%. As for `COc1cccc(C=Cc2nc(=O)c3ccccc3o2)c1OC`, the figure is 2.1344%; as for `CCCN(CCC)CC(O)COc1ccccc1C(=O)Nc1ccccc1` (configuration not stated), 34.3502%. As for `Fc1ccc2[nH]c3c(NCCCN4CCOCC4)ncnc3c2c1`, the figure is 3.632%. Regarding `COc1ccc(C(=O)Nc2nonc2-c2ccc(OC)c(OC)c2)cc1Cl`, the “Growth Inhibition” value was 7.9826%. Next, `COCCN(C(=O)Cc1cccs1)C(C(=O)NCc1ccc(OC)cc1)c1ccc(C(C)C)cc1` (configuration not stated): 12.1412%; `COc1ccc(C=C2SC(=N)N(c3ccccc3OC)C2=O)cc1`: 26.57%. As for `COc1ccc(NC(=O)C2c3ccccc3C(=O)N(CC(C)C)C2c2cccs2)cc1Cl` (configuration not stated), the “Growth Inhibition” value worked out at 14.3436%.

For `CCOC(=O)c1c(C)n(-c2ccc(Cl)cc2)c2ccc(OC(=O)C=Cc3ccccc3)cc12`, the “Growth Inhibition” value is given as -3.2706%.

With `COc1ccc2c(c1)OC(O)(C(F)(F)C(F)(F)F)CC2=O` (configuration not stated), the “Growth Inhibition” value came out at 11.5806%.

As for `FC(F)(F)c1cccc(CNC2CCN(CCc3ccccc3)CC2)c1`, the “Growth Inhibition” value came to 12.4718%.

`Oc1ccc(Cl)cc1CNc1nc2ccccc2[nH]1`: the “Growth Inhibition” value came out at 5.249%. As for `CCOc1cc(Cl)c(C(C)NC(=O)c2ccccc2)cc1OCC` (configuration not stated), the figure is 3.3956%; as for `C=CC12CCN(CC1)C(C(O)c1ccnc3ccc(OC)cc13)C2.Cl` (configuration not stated), 15.913%. As for `Cc1ccc(-c2cc3nc4c(c(O)n3n2)CCCC4)cc1`, the figure is 9.811%.

As for `Cc1cccc(Nc2nc(N)c3ccccc3n2)c1.Cl`, the “Growth Inhibition” value is given as -0.3732%.

With `CCn1c(CN2CCN(Cc3ccccc3)CC2)nc2cc(NC(=O)c3cccs3)ccc21`, the “Growth Inhibition” value was determined as 17.812%. Next, `COc1ccccc1CNC(=O)CCn1c(=O)[nH]c2ccccc2c1=O`: -1.4414%.

For the compound `O=C(Nc1ccc(Cl)cc1)N1CCN(c2ccc3nncn3n2)CC1`, the “Growth Inhibition” value is -0.5422%.

For the compound `c1ccc2cc3c(Nc4ccc(N5CCOCC5)cc4)ccnc3cc2c1`, the “Growth Inhibition” value is given as 12.7974%. As to `Cc1cc(C)c2c(c1)OCN(Cc1ccccc1Cl)C2`, the “Growth Inhibition” value turned out to be 32.69%. As for `COc1cc(OC)c(N(C)C(=O)c2cc3c(s2)-c2ccccc2S(=O)(=O)C3)cc1Cl`, the figure is 6.301%.

With `CCOC(=O)c1cn(CC)c2cc(N3CCCCC3)c(F)cc2c1=O`, the “Growth Inhibition” value is recorded as 27.8444%. As for `CCCc1cc(O)c2c3c(c(=O)oc2c1)CN(C)CC3`, the figure is 31.2868%. As for `Cc1cc(NC(=O)C2c3ccccc3C(=O)N(CC(C)C)C2c2cccs2)no1` (configuration not stated), the figure is 21.7574%; as for `Cl.Oc1ccccc1CNCC12CC3CC(CC(C3)C1)C2`, 28.0055%.

With `CNCCCNc1ccnc2cc(Cl)ccc12`, the “Growth Inhibition” value is recorded as -4.352%. In the case of `COc1ccccc1CNC(=O)CCn1c(=O)[nH]c2ccsc2c1=O`, the “Growth Inhibition” value is given as -5.0228%. As for `COc1ccc(Br)cc1C1Nc2ccc3ccccc3c2C2=C1C(=O)CC(c1ccccc1)C2` (configuration not stated), the “Growth Inhibition” value is listed as 7.0344%. `Cc1cc(C=C2SC(=Nc3ccccc3)N(C3CCCC3)C2=O)c(C)n1-c1ccc(Cl)cc1`: the “Growth Inhibition” value is -0.992%.

As for `CCn1c(SCC(=O)Nc2cc(C(F)(F)F)ccc2Cl)nc2ccccc2c1=O`, the “Growth Inhibition” value is reported as -1.2952%. As for `Cc1ccc(Cn2c(N3CCC(C(=O)NCc4cccs4)CC3)nc3ccccc32)cc1`, the figure is -1.5746%; as for `CC1CCN(Cc2ccc(NC(=O)c3cc4ccc5cccnc5c4[nH]3)cc2)CC1`, 2.4882%; as for `O=C(Nc1ccc(Cl)cc1C(=O)Nc1ccncc1)c1ccc(Cl)cc1Cl`, 4.844%. As for `CCOc1ccc(-c2nonc2NC(=O)c2cccc(C)c2)cc1OCC`, the figure is 30.014%. Consider `CCc1ccc(Nc2cc(C)c3ccc(O)cc3n2)cc1.Cl`, for which the “Growth Inhibition” value is 27.662%. For the compound `COc1ccc2c(=O)cc(C(Cl)(Cl)Cl)oc2c1`, the “Growth Inhibition” value worked out at 12.9182%. As for `CC(C)(C)CC(C)(C)NCC(O)COc1ccc2c(c1)CCC2.Cl` (configuration not stated), the figure is 14.2274%. As for `CCCCc1ccc(NS(=O)(=O)c2cc3c4c(c2)CCN4C(=O)CC3)cc1`, the figure is -1.4264%. Next, `COc1ccc(-c2nc3cc(Cc4ccc5[nH]c(-c6ccc(OC)cc6)nc5c4)ccc3[nH]2)cc1`: 4.7376%; `CCOC(=O)c1ccc2nc(-c3ccccc3)cc(O)c2c1`: 40.6125%. For the compound `Cc1cc(Nc2ccc(Cl)cc2)n2nc(C(F)(F)F)nc2n1`, the “Growth Inhibition” value turned out to be 7.7522%. As for `COc1ccc(C(C)=O)cc1N1C(=O)C2C(C1=O)C1(c3ccccc3)C(=O)C2(c2ccccc2)C(c2ccc(C)cc2)=C1c1ccc(C)cc1` (configuration not stated), the figure is -2.6232%; as for `CCCCCCOC(=O)C1=C(C)NC(=O)NC1c1ccccc1F` (configuration not stated), 6.2916%. Next, `COc1ccc(C2Sc3ccccc3N=C3C2=C(O)c2ccccc23)cc1` (configuration not stated): -5.7444%; `Cc1ccc(N2C3c4ccccc4N(S(=O)(=O)c4ccc(C)cc4)C2c2ccccc2N3S(=O)(=O)c2ccc(C)cc2)cc1`: -2.5084%. Regarding `CCCc1c(CC)c(=N)c2ccccc2n1C`, the “Growth Inhibition” value is recorded as 4.7322%. With `Cc1ccc(Nc2nc(NCCO)c3ccccc3n2)cc1C`, the “Growth Inhibition” value was determined as 11.5812%. Next, `CC1CCCCN1CCCNC(=O)c1ccc2c(c1)sc1nc(-c3ccc(F)cc3)cn12` (configuration not stated): 16.9994%; `CCOC(=O)c1cnc2c(C)cc(C)cc2c1Nc1ccc(OC)c(OC)c1`: -11.2088%. Regarding `COc1ccc(NC(=O)C2c3ccccc3C(=O)N(CC(C)C)C2c2cccs2)cc1` (configuration not stated), the “Growth Inhibition” value is 28.379%. Next, `c1ccc(Cn2c(N=Nc3c(Nc4ccccc4)ccc4ccccc34)nc3ccccc32)cc1`: 28.0754%.
